Measurements from ChEMBL document CHEMBL1144377, “Oximinoarylsulfonamides as potent HIV protease inhibitors” (Bioorg Med Chem Lett, 2005).

Columns and labels:
[1] = system: Human immunodeficiency virus 1; experiment: Inhibitory concentration against wild type human immunodeficiency virus; assay type: functional, organism-based
[2] = system: Human immunodeficiency virus 1; experiment: Inhibitory concentration against resistant (A17) human immunodeficiency virus; assay type: functional, organism-based

Row | Compound | IC50 [1] | IC50 [2]
1 | Cc1nc(CN2CCN([C@H](C(=O)N[C@@H](Cc3ccccc3)[C@H](O)CN(CC(C)C)S(=O)(=O)c3ccc(/C=N\O)cc3)C(C)C)C2=O)cs1 | 5 nM | 31 nM
2 | Cc1nc(CN2CCN([C@H](C(=O)N[C@@H](Cc3ccccc3)[C@H](O)CN(CC(C)C)S(=O)(=O)c3ccc(CO)cc3)C(C)C)C2=O)cs1 | 61 nM | 99 nM
3 | Cc1nc(CN2CCN([C@H](C(=O)N[C@@H](Cc3ccccc3)[C@H](O)CN(CC(C)C)S(=O)(=O)c3ccc(C#N)cc3)C(C)C)C2=O)cs1 | 148 nM | 1170 nM
4 | Cc1nc(CN2CCN([C@H](C(=O)N[C@@H](Cc3ccccc3)[C@H](O)CN(CC(C)C)S(=O)(=O)c3ccc(C(N)=O)cc3)C(C)C)C2=O)cs1 | 254 nM | 944 nM
5 | Cc1nc(CN2CCN([C@H](C(=O)N[C@@H](Cc3ccccc3)[C@H](O)CN(CC(C)C)S(=O)(=O)c3ccc(NS(C)(=O)=O)cc3)C(C)C)C2=O)cs1 | 1190 nM | 10000 nM
6 | Cc1nc(CN2CCN([C@H](C(=O)N[C@@H](Cc3ccccc3)[C@H](O)CN(CC(C)C)S(=O)(=O)c3ccc(C=O)cc3)C(C)C)C2=O)cs1 | 51 nM | 206 nM
7 | CC(=O)Nc1ccc(S(=O)(=O)N(CC(C)C)C[C@@H](O)[C@H](Cc2ccccc2)NC(=O)[C@H](C(C)C)N2CCN(Cc3csc(C)n3)C2=O)cc1 | 312 nM | 1520 nM
8 | CO/N=C\c1ccc(S(=O)(=O)N(CC(C)C)C[C@@H](O)[C@H](Cc2ccccc2)NC(=O)[C@H](C(C)C)N2CCN(Cc3csc(C)n3)C2=O)cc1 | 653 nM | 3010 nM
9 | Cc1nc(CN2CCN([C@H](C(=O)N[C@@H](Cc3ccccc3)[C@H](O)CN(CC(C)C)S(=O)(=O)c3ccc(NC=O)cc3)C(C)C)C2=O)cs1 | 168 nM | 2410 nM
10 | C=Cc1ccc(S(=O)(=O)N(CC(C)C)C[C@@H](O)[C@H](Cc2ccccc2)NC(=O)[C@H](C(C)C)N2CCN(Cc3csc(C)n3)C2=O)cc1 | 101 nM | 957 nM
11 | Cc1nc(CN2CCN([C@H](C(=O)N[C@@H](Cc3ccccc3)[C@H](O)CN(CC(C)C)S(=O)(=O)c3ccc(C(=O)O)cc3)C(C)C)C2=O)cs1 | 10000 nM | 9440 nM
12 | Cc1nc(CN2CCN([C@H](C(=O)N[C@@H](Cc3ccccc3)[C@H](O)CN(CC(C)C)S(=O)(=O)c3cccc(CO)c3)C(C)C)C2=O)cs1 | 45 nM | 910 nM
13 | Cc1cccc(C)c1OCC(=O)N[C@@H](Cc1ccccc1)[C@@H](O)C[C@H](Cc1ccccc1)NC(=O)[C@H](C(C)C)N1CCCNC1=O [LOPINAVIR] | – | 1240 nM
14 | Cc1nc(CN2CCN([C@H](C(=O)N[C@@H](Cc3ccccc3)[C@H](O)CN(CC(C)C)S(=O)(=O)c3cccc(/C=N\O)c3)C(C)C)C2=O)cs1 | 16 nM | 222 nM
15 | Cc1nc(CN2CCN([C@H](C(=O)N[C@@H](Cc3ccccc3)[C@H](O)CN(CC(C)C)S(=O)(=O)c3ccc(C(=N)NO)cc3)C(C)C)C2=O)cs1 | 143 nM | 523 nM
16 | CC(C)c1nc(CN(C)C(=O)N[C@H](C(=O)N[C@@H](Cc2ccccc2)C[C@H](O)[C@H](Cc2ccccc2)NC(=O)OCc2cncs2)C(C)C)cs1 [RITONAVIR] | – | 3440 nM
17 | Cc1nc(CN2CCN([C@H](C(=O)N[C@@H](Cc3ccccc3)[C@H](O)CN(CC(C)C)S(=O)(=O)c3ccc(N)cc3)C(C)C)C2=O)cs1 | 31 nM | 311 nM
18 | CC(=O)c1ccc(S(=O)(=O)N(CC(C)C)C[C@@H](O)[C@H](Cc2ccccc2)NC(=O)[C@H](C(C)C)N2CCN(Cc3csc(C)n3)C2=O)cc1 | 39 nM | 680 nM
19 | CC(C)CN(C[C@@H](O)[C@H](Cc1ccccc1)NC(=O)O[C@H]1CCOC1)S(=O)(=O)c1ccc(N)cc1 | 109 nM | 3720 nM
